The results in this text go back to US6716987B1, “Derivatives of benzofuran or benzodioxazole compounds” (Kyowa Hakko Kogyo Co., Ltd., priority 1995, dated 2004).

The test system of data set [1] is cAMP-specific phosphodiesterase (PDE IV). The data set is described as follows: Inhibition of the PDE IV enzyme derived from a dog trachea. Particulars: test compound 10^−6 M; PDE IV from dog tracheal smooth muscle; substrate cAMP 1 μM. In kind it is biochemical. Summed up: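 Enzyme purified from dog tracheal smooth muscle; [3H]cAMP substrate at 1 μM final in 50 mM BES pH 7.2, 1 mM MgCl2, 0.1 mg/ml soybean trypsin inhibitor, 30° C for 10–30 min, 1.7% DMSO final. After HCl stop, product converted to adenosine by 5′-nucleotidase, separated on DEAE-Sephadex and scintillation-counted.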

The melting point is the temperature of the solid-liquid transition. On to `COc1ccc(C(=O)Cc2c(Cl)cncc2Cl)c2c1OCC2C` (racemic) [Compound 103, (±)-4-[2-(3,5-Dichloro-4-pyridyl)-1-oxoethyl]-7-methoxy-3-methyl-2,3-dihydrobenzofuran], for which the melting point was in the range of 99 to 104 °C. For the same compound, the “Enzyme Inhibitory Activity (%, 10^−6 M)” value in data set [1] was found to be 88%.
The matching figures for `CCOC(=O)C(C#N)=Cc1ccc(OC)c2c1CC(C)(C)O2` [Compound 89, 4-(2-Cyano-2-ethoxycarbonylethenyl)-7-methoxy-2,2-dimethyl-2,3-dihydrobenzofuran]: 112 to 117 °C and 33%.
In the same order, the values of `CCC1(CC)Cc2c(C(=O)Cc3c(Cl)cncc3Cl)ccc(OC)c2O1` [Compound 97, 4-[2-(3,5-Dichloro-4-pyridyl)-1-oxoethyl]-2,2-diethyl-7-methoxy-2,3-dihydrobenzofuran] are 164 to 166 °C and 92%.
The matching figures for `COc1ccc(C(Sc2ccncc2)c2ccccc2)c2c1OCC2C` (racemic) [Compound 60B, (±)-7-Methoxy-3-methyl-4-[1-phenyl-1-(4-pyridylthio)-methyl]-2,3-dihydrobenzofuran]: 84 to 85 °C and 4%.
Take `COc1ccc(C(=O)Nc2c(Cl)cncc2Cl)c2c1OCC2CC(=O)NCc1ccc(F)cc1` (racemic) [Compound 29, (±)-4-[(3,5-Dichloro-4-pyridyl)aminocarbonyl]-3-[(4-fluorobenzyl)aminocarbonyl]methyl-7-methoxy-2,3-dihydro-benzofuran]: the melting point was found to be 287 °C. The “Enzyme Inhibitory Activity (%, 10^−6 M)” value in data set [1] is reported as 85%.
The matching figures for `COc1ccc(C(=O)Nc2c(Cl)cncc2Cl)c2c1OCC2CC(=O)NCc1ccccc1` (racemic) [Compound 25, (±)-3-(Benzylaminocarbonyl)methyl-4-[(3,5-dichloro-4-pyridyl)aminocarbonyl]-7-methoxy-2,3-dihydrobenzofuran]: 284 to 286 °C and 84%.
Regarding `CCCCc1cc2c(C(=O)Nc3c(Cl)cncc3Cl)ccc(OC)c2o1` [Compound 36, 2-Butyl-4-(3,5-dichloropyridin-4-ylaminocarbonyl)-7-methoxybenzofuran], the melting point is 160 to 164 °C. Also, the “Enzyme Inhibitory Activity (%, 10^−6 M)” value in data set [1] is 87%.
In the same order, the values of `COc1ccc(C(=O)Nc2ccccc2)c2c1OCC2CC(=O)OCc1ccccc1` (racemic) [Compound 15, (±)-3-Benzyloxycarbonylmethyl-7-methoxy-4-phenylaminocarbonyl-2,3-dihydrobenzofuran] are 179 to 180 °C and 75%.
In the same order, the values of `CCOC(=O)CC1COc2c(OC)ccc(C(=O)Nc3c(Cl)cncc3Cl)c21` (racemic) [Compound 5, (±)-4-[(3,5-Dichloro-4-pyridyl)aminocarbonyl]-3-ethoxycarbonylmethyl-7-methoxy-2,3-dihydrobenzofuran] are 186 to 188 °C and 85%.
The matching figures for `COc1ccc(C(C#N)Cc2c(Cl)cncc2Cl)c2c1OC(C)(C)C2` (racemic) [Compound 63, (±)-4-[1-Cyano-2-(3,5-dichloro-4-pyridyl)ethyl]-2,2-dimethyl-7-methoxy-2,3-dihydrobenzofuran]: 158 to 162 °C and 85%.
Compound `COc1ccc(C(=O)Nc2c(Cl)cncc2Cl)c2c1OCC2CC(=O)OCc1ccccc1` (racemic) [Compound 13, (±)-3-Benzyloxycarbonylmethyl-4-[(3,5-Dichloro-4-pyridyl)aminocarbonyl]-7-methoxy-2,3-dihydrobenzofuran] came in with a melting point of 198 to 205 °C. Besides, in data set [1], the “Enzyme Inhibitory Activity (%, 10^−6 M)” value is recorded as 94%.
